Laboratory results from article PMC12797238 (ACS Infectious Diseases, 2025).

Tests used:
[1] = test system: Trypanosoma brucei bloodstream forms; test: Drug sensitivity assay, dose–response curves, T. brucei; assay type: cell-based; details: for EC50: bloodstream forms, mean, n ≥ 3; for T. brucei selectivity: relative to human BJ fibroblast EC50
Text: (§1) Human fibroblasts, T. brucei, T. gambiense, P. falciparum, L. mexicana, and B. divergens were cultivated as described previously, and dose–response curves were obtained by their cultivation on 96 well plates in a 2-fold seriel dilution of the appropriate drug.

Human BJ Fibroblast = test: Drug sensitivity assay, dose–response curves, human BJ fibroblasts; assay type: cell-based; details: mean, n ≥ 3
Text: as §1

[2] = test system: Toxoplasma tachyzoites mitochondrion; test: Toxoplasma mitochondrial membrane potential (MitoTracker, cytometry and microscopy); assay type: cell-based, Toxoplasma gondii; details: 24 h at 3× EC50; for Mitotracker staining of T. gondii, microscopic observation: FCCP as uncoupler control
Protocol: We used the MitoTracker Deep Red FM fluorescent probe (Invitrogen) to assess the mitochondrial membrane potential in Toxoplasma tachyzoites. […] After another 24 h of culture at 37 °C and 5% CO2, Mitotracker labeling was performed as described in the protocol provided by the manufacturer, with a 45 min incubation at 37 °C and 5% CO2 of the reconstituted dye diluted to 1/1000 in culture medium. Parasites were then fixed for 30 min in 4% (w/v) PFA (diluted in PBS), washed twice in PBS, scraped, syringed (with a 25 G needle), filtered on a 40 μm membrane, and resuspended in 1 mL of PBS. Parasites were then analyzed with an Aurora spectral cytometer (Cytek), using a 633 nm excitation laser and a 665 nm detector. 10,000 events were recorded. Mean fluorescence was plotted against vehicle-treated culture parasites using Prism 8.0 (GraphPad Software), and statistical significance was determined using one-way ANOVA with Tukey’s multiple-comparison test. The experiment was performed for three biologically independent replicates. For the membrane depolarization control, parasites were treated with 10 μM FCCP for 30 min prior to and during incubation with the Mitotracker dye.
Intracellular parasites and the host cell monolayer were then fixed 24 h later with 4% (w/v) PFA (diluted in PBS) for 20 min, and after fixation, cells were permeabilized with 0.3% (v/v) Triton X-100 (diluted in PBS) for 10 min. Costaining with the anti-F1β ATPase mitochondrial marker was performed as described below.

T. gondii mitochondrion = test: Toxoplasma immunofluorescence assay of organelle morphology; assay type: cell-based, Toxoplasma gondii; details: 24 h at 3× EC50; DFX at 60 nM
Protocol: For IFAs to assess organelle morphology, coverslips seeded with HFFs were infected with T. gondii tachyzoites, and 3 h later, compounds were added (at 3 times their respective EC50). Intracellular parasites and host cell monolayers were then fixed 24 h later with 4% (w/v) PFA (diluted in PBS) for 20 min. After fixation, cells were permeabilized with 0.3% (v/v) Triton X-100 (diluted in PBS) for 10 min. Coverslips were blocked with 2% (w/v) bovine serum albumin (BSA) for 1 h prior to immunolabeling with a primary antibody for 1 h. After 3 washes in PBS, a corresponding secondary antibody was incubated for 1 h. Coverslips were then incubated with 1 μg/mL of Hoechst stain for 5 min before 3 washes in PBS and, finally, mounted using Immu-Mount (Thermo Fisher) onto microscope slides. Primary antibodies used were prepared in 2% BSA (diluted in PBS) and used at the following concentrations: the apicoplast was stained using rabbit anti-PDH-E2 (1:500), the mitochondrion was stained using mouse anti-F1β ATPase (1:1000, gift of P. Bradley). Anti-mouse and anti-rabbit secondary antibodies were all from Thermo Fisher and were diluted at 1:4000. Image acquisition was performed with a Zeiss Axio Observer inverted microscope equipped with a Zeiss Axiocam 712 camera and 63×/1.4 or 100×/1.4 Oil Plan Achromat objectives. Images were processed with Zen Blue v3.6 software (Zeiss). Z-stack acquisitions were processed by a maximum-intensity orthogonal projection. Adjustments of brightness and contrast were applied uniformly, and paired images were acquired with the same exposure time. Quantifications of mitochondrial morphology were performed by microscopic observation of a series of at least 100 parasites, and data from three independent biological replicates was acquired and plotted using Prism 8.0 (GraphPad Software). Statistical significance was determined using one-way ANOVA with Tukey’s multiple-comparison test.

[3] = test system: Toxoplasma gondii tachyzoites (RH strain), intracellular stages; test: T. gondii lytic cycle plaque assay in HFF monolayers; assay type: cell-based
Protocol: T. gondii tachyzoites of the RH strain were routinely maintained through passages in a human foreskin fibroblasts (HFFs) monolayer (ATCC CRL-1634). HFFs and parasites were cultured in standard Dulbecco’s Modified Eagle Medium (DMEM), supplemented with 5% decomplemented fetal bovine serum (FBS), 2 mM L-glutamine, 100 U/mL penicillin, and 100 μg/mL streptomycin (Gibco) at 37 °C and with 5% CO2 in an incubator with a controlled atmosphere.
The lytic cycle of T. gondii tachyzoites was assessed by a plaque assay as described previously. Briefly, tachyzoites were allowed to invade monolayers of HFFs for 3 h before addition of the compounds or the DMSO vehicle and were subsequently cultivated for 7 days at 37 °C and 5% CO2. They were then fixed with 4% (w/v) paraformaldehyde (PFA, diluted in phosphate-buffered saline (PBS)) for 20 min and stained with a 0.1% crystal violet solution (V5265, Sigma-Aldrich), washed, and air-dried before imaging under an Olympus MVX10 microscope.
Figure S1. EC50 determination of selected compounds in Toxoplasma.
B) EC50 curves based on plaque
area measured from three independent plaque assays. Data are mean ± standard deviation. C)
vacuoles were counted for each con dition. Values represented are mean ± standard deviation of […]

[4] = test system: Leishmania mexicana axenic amastigotes; test: Drug sensitivity assay, dose–response curves, L. mexicana; assay type: cell-based
Text: as §1

[5] = test system: Trypanosoma gambiense bloodstream forms; test: Drug sensitivity assay, dose–response curves, T. gambiense; assay type: cell-based
Text: as §1

[6] = test system: Plasmodium falciparum intracellular stages; test: Drug sensitivity assay, dose–response curves, P. falciparum; assay type: cell-based
Text: as §1

[7] = test system: T. brucei 427 bloodstream form mitochondria; test: Mitochondrial membrane potential in T. brucei (TMRE, flow cytometry); assay type: cell-based, Trypanosoma brucei; details: 24 h at 3× EC50
Protocol: The mitochondrial membrane potential of T. brucei 427 bloodstream form was assessed using the fluorescent probe TMRE (Thermo Fisher Scientific) as described in ref . […] Untreated cells and cells preincubated with a 50 μM CCCP uncoupler for 30 min were used as negative and positive controls, respectively. Approximately 1 × 10^6 cells were incubated with 60 nM TMRE for 30 min, washed 1× with sterile PBS, and 5,000 events were measured on a Guava EasyCyte 8HT flow cytometer (Luminex) using a 488 nm excitation laser and a 583/26 nm detector. Median fluorescence was plotted against an untreated culture using Prism 8.0 (GraphPad Software), and statistical significance was determined using RM one-way ANOVA with Geisser–Greenhouse correction. The experiment was performed in three biologically independent replicates.

[8] = test system: Babesia divergens intracellular stages; test: Drug sensitivity assay, dose–response curves, B. divergens; assay type: cell-based
Text: as §1

[9] = intracellular stages, mean, n ≥ 3

Molecule | EC50 (Human BJ Fibroblast) | EC50 [1] | T. brucei selectivity [1] | other results
CC(=O)N(O)CCCCCNC(=O)CCC(=O)N(O)CCCCCNC(=O)CCC(=O)N(O)CCCCCN [compound 16, deferoxamine, reference compound] | > 25000 nM | – | – | EC50 ([1]; Trypanosoma brucei): > 25000 nM
CCCCCCCC[P+](CCCCCCCC)(CCCCCCCC)CCCCCCCCCCN(CCCCCCCCCC[P+](CCCCCCCC)(CCCCCCCC)CCCCCCCC)CCCCCN(O)C(=O)CCC(=O)NCCCCCN(O)C(=O)CCC(=O)NCCCCCN(O)C(C)=O.Cl.[Cl-].[Cl-] [compound 8, (trioctylphosphine-C10)2-DFO] | 2920 nM | 134 nM | 22 | –
CC(=O)N(O)CCCCCNC(=O)CCC(=O)N(O)CCCCCNC(=O)CCC(=O)N(O)CCCCCN(CCCCCCCCCC[P+](c1ccccc1)(c1ccccc1)c1ccccc1)CCCCCCCCCC[P+](c1ccccc1)(c1ccccc1)c1ccccc1.[Cl-].[Cl-] [compound 2, (triphenylphosphine-C10)2-DFO] | 8910 nM | 56.9 nM | 156 | –
CC(=O)N(O)CCCCCNC(=O)CCC(=O)N(O)CCCCCNC(=O)CCC(=O)N(O)CCCCCN(CCCCCCCCCCCC[P+](c1ccccc1)(c1ccccc1)c1ccccc1)CCCCCCCCCCCC[P+](c1ccccc1)(c1ccccc1)c1ccccc1.Cl.[Cl-].[Cl-] [compound 6, (triphenylphosphine-C12)2-DFO] | 3630 nM | 73.1 nM | 50 | –
O=C(NCCCCCCCC[P+](c1ccccc1)(c1ccccc1)c1ccccc1)c1ccc(-n2nc(-c3ccccc3O)nc2-c2ccccc2O)cc1.[Cl-] [compound 12, triphenylphosphine-C8-DFX] | 1970 nM | 35.8 nM | 55 | –
CC(=O)N(O)CCCCCNC(=O)CCC(=O)N(O)CCCCCNC(=O)CCC(=O)N(O)CCCCCNCCCCCCCCCC[P+](c1ccccc1)(c1ccccc1)c1ccccc1 [compound 1, triphenylphosphine-C10-DFO] | > 25000 nM | 882 nM | – | –
(dimethylphenylphosphine-C10)2-DFO [compound 9] | > 25000 nM | 1150 nM | – | decrease in antiparasitic activity compared with compound 2 ([1]; T. brucei): ~20 fold
N#CC(C#N)=NNc1ccc(OC(F)(F)F)cc1 [FCCP, carbonyl cyanide p-trifluoromethoxyphenylhydrazone, reference compound] | – | – | – | Mitotracker staining of T. gondii, microscopic observation [2]: diffuse Mitotracker signal
O=C(NCCCCCC[P+](c1ccccc1)(c1ccccc1)c1ccccc1)c1ccc(-n2nc(-c3ccccc3O)nc2-c2ccccc2O)cc1.[Cl-] [compound 13, triphenylphosphine-C6-DFX] | 15000 nM | 49.8 nM | 302 | –
(tricylohexylphosphine-C10)2-DFO [compound 5] | 3080 nM | 52 nM | 59 | –
CC(=O)N(O)CCCCCNC(=O)CCC(=O)N(O)CCCCCNC(=O)CCC(=O)N(O)CCCCCN(CCCCCCCCCC[P+](Cc1ccccc1)(Cc1ccccc1)Cc1ccccc1)CCCCCCCCCC[P+](Cc1ccccc1)(Cc1ccccc1)Cc1ccccc1.Cl.[Cl-].[Cl-] [compound 7, (tribenzylphosphine-C10)2-DFO] | 2550 nM | 186 nM | 14 | –
(tributylphosphine-C10)2-DFO [compound 4] | 2840 nM | 281 nM | 10 | –
O=C(O)c1ccc(-n2nc(-c3ccccc3O)nc2-c2ccccc2O)cc1 [compound 17, deferasirox, reference compound] | > 25000 nM | – | – | T. gondii mitochondrial membrane potential, flow cytometric quantification of Mitotracker labeling ([2]; DFX at 60 nM): no specific impact; morphology of the T. gondii mitochondrion (T. gondii mitochondrion): largely preserved; EC50 ([1]; Trypanosoma brucei): 8790 nM
Oc1ccccc1-c1nc(-c2ccccc2O)n(CCCCCCCCCC[P+](c2ccccc2)(c2ccccc2)c2ccccc2)n1.[Br-] [compound 11, triphenylphosphineBr-C10-norbenzoic-DFX] | 2110 nM | 5.5 nM | > 300 | EC50 ([3]; intracellular stages, plaque assay in HFFs, 7 days, n ≥ 3): 5 nM; T. gondii selectivity ([3]; relative to fibroblasts): 422; Mitotracker staining of T. gondii, microscopic observation [2]: strong decrease in Mitotracker staining; EC50 ([4]; axenic amastigotes, mean, n ≥ 3): 132 nM; L. mexicana selectivity ([4]; relative to fibroblasts): 16; EC50 ([5]; bloodstream forms, mean, n ≥ 3): 7.5 nM; T. gambiense selectivity ([5]; relative to fibroblasts): 282; morphology of the T. gondii mitochondrion (T. gondii mitochondrion): altered the morphology of the organelle; EC50 [6, 9]: 238 nM; P. falciparum selectivity ([6]; relative to fibroblasts): 9; mitochondrial membrane potential of T. brucei (relative to untreated) [7]: less than 50%; EC50 [8, 9]: 17.2 nM; B. divergens selectivity ([8]; relative to fibroblasts): 122
(triphenylphosphine-C10-triazole)2-DFO [compound 10] | 4130 nM | 134 nM | 31 | –
(tributylamine-C10)2-DFO [compound 3] | 8140 nM | 73.6 nM | 111 | –
